Assay results reported in US4444776A, “Dipyrido (4,3-B) (3,4-F) indoles, process for obtaining them, therapeutical use and pharmaceutical compositions” (priority 1977, dated 1984).

Assays:
[1] = test system: DNA synthesis in HS5 cells; test: Test 6: action on DNA synthesis (14C methyl-thymidine incorporation); format: cell-based, hamster; details: in the hours following its addition
Method: Test 6: Action on the macromolecular syntheses
The action of the compounds according to the invention was studied by the incorporation of precursors marked by radioactive isotopes:
^14 C methyl-thymidine for studying the DNA synthesis
These precursors were given for a period of 30 minutes at varying times after the addition of the product to be tested.
The incorporation is measured after lysis of the cells for 1% of sodium dodecylsulfate and precipitation by 5% of trichloroacetic acid. The […] precipitate was collected on glass fibre Whatman GF/A filters. The filters were dried and counted in a liquid scintillation spectrometer.

replication of the DNA = test: Test 6: DNA replication in synchronised cells; format: cell-based; details: first minutes following addition
L1210 leukemia [2] = test: Test 15: L1210 leukemia, compound of formula 8 (Table XI); format: in vivo, mouse; details: for ILS % / MST / Range of death: 50 mg/kg
Method: The proceeding of test 1 was repeated with the compound of formula 8 obtained according to example 1, i.e. 5,11-dimethyl-dipyrido[4,3-b][3,4-f]indole. In this test, the compound of formula 8 was injected four days after the inoculation of the cells (50 mg/kg). The results are shown in table XI wherein the results obtained with the same compound injected one day after the cell inoculation are also reported (see experiment no. 2 in table I).

L1210 leukemia [3] = test: Test 17: length of substituting chain, L1210 (Table XIII); format: in vivo, mouse
Method: Test 17: Relationship between the length of the substituting chain and the activity.
However compound 21 is less toxic (50 mg/kg for compound 21 and 25 mg/kg for compound 23), it has a higher ILS% than compound 23 and 1 mouse survived up to 60 days.

mice = test: Test 21: toxicity after intraperitoneal injection
Method: All drugs were dissolved in aqueous solutions adjusted at pH 5 with acetic acid and inoculated to the mice under a volume of 0.1 ml I.P. after dilution in Mac Coy's medium.
The toxicity of the drugs after intraperitoneal injection was estimated from the mortality rate up to the 30th day.

L1210 leukemia [4] = test: Test 18: dose-L1210 antitumoral activity of compound 21; format: in vivo, mouse
Description: Test 18: Relationship between dose and L1210 antitumoral activity of compound 21 […]

leukemic cells = test: Test 20: combination of compound 21 with other drugs (Table XV); details: 10^5 cells, BD 40 20 mg/kg day +4, Endoxan 100 mg/kg day +3
Method: A priming dose of endoxan (100 mg/kg) was given 3 days after 10^5 leukemic cells (20 mice).

new-born mice = test: Test 4: toxicity on new-born mice, IP; format: in vivo, mouse; details: new-born mice
Description: Test 4: Investigation of the toxicity
The toxic dose has been sought, on adult ([…]×DBA/2) Fl mice and on new-born mice, of the compounds of the invention by injection by the IP route. The results obtained are given hereinafter:
2-On new-born mice (IP route)

L1210 cells = test: Test 19: effect of time of administration, L1210 (Table XIV); format: in vivo, mouse; design: MST: unit not given beside the values; details: 20 mg/kg IP
Description: Test 19: Effect of the time of administration of compound 21
The non-protective effect at day+7 could be explained by the fact that some cells migrate through a compartment inaccessible to the drug (as postulated by J. B. Le Pecq for the 9-hydroxy-ellipticine).

L 1210 leukemia = test: Test 10: comparison of antitumoral activity with known products, L 1210 (Tables V-VII); format: in vivo, mouse
Method: Test 10: Comparison of the antitumoral activity of the compound according to example 7 with that of known products
The compound of example 7, i.e. 1-(γ-diethylaminopropyl)amino-5-methyl-dipyrido-[4,3-b][3,4-f] indole or known compounds were injected into L 1210 leukemic mice 1 or 3 days after the inoculation of the cells at the doses indicated in tables V to VII and the mean survival time (MST) and the precentage of increased life span (ILS %) were measured.
Indications concerned the known products used in this example and particularly their antitumoral properties, their secondary effects and their use in man may be found in "La Chimiotherapie des Cancers", by G. MATHE and M. KENIS Expansion Scientifique Francaise, 3rd edition, Paris 1975.

[5] = Table V, 10^4 cells, J+1, 0.2 mg/mouse
[6] = Table V, 10^4 cells, J+3, doses mg/mouse: example 7 0.2, Thiotepa 0.1, Mitomycine 0.016, BCNU 0.1, Methotrexate 0.250
[7] = Table VI, 10^5 cells, J+1, 0.2 mg/mouse
[8] = Table VI, 10^5 cells, J+3, mg/mouse: Thiotepa 0.1, Mitomycine C 0.016, BCNU 0.1, Methotrexate 0.250, example 7 0.2, Endoxan 4
[9] = Table VII, 10^5 cells, J+3, example 7 0.2 mg/mouse, ON COVIN 0.5 μg/mouse

Q: `Cc1c2ccncc2c(C)c2c1[nH]c1ccncc12` [Example 1, 5,11-dimethyl dipyrido [4,3-b][3,4-f] indole] was tested. Which “DNA and RNA syntheses” value [1] did it give?
A: reduces very rapidly

Q: And the “replication of the DNA, initiation and elongation steps” value (replication of the DNA)?
A: stops, in the first minutes following its addition, the replication of the DNA

Q: What about the ILS % (L1210 leukemia [2]; 10^4 cells, day +1) of the same compound?
A: 11.8%

Q: What about the MST (L1210 leukemia [2]; 10^4 cells, day +1) of the same compound?
A: 12.3 days

Q: What about the Range of death (L1210 leukemia [2]; 10^4 cells, day +1) of the same compound?
A: 11-14

Q: What about the ILS % (L1210 leukemia [2]; 10^4 cells, day +4) of the same compound?
A: 14.7%

Q: What about the MST (L1210 leukemia [2]; 10^4 cells, day +4) of the same compound?
A: 12 days

Q: What about the Range of death (L1210 leukemia [2]; 10^4 cells, day +4) of the same compound?
A: 10-16

Q: And the ILS % (L1210 leukemia [2]; 10^5 cells, day +1)?
A: 38.1%

Q: What about the MST (L1210 leukemia [2]; 10^5 cells, day +1) of the same compound?
A: 12.85 days

Q: What about the Range of death (L1210 leukemia [2]; 10^5 cells, day +1) of the same compound?
A: 10-13

Q: What about the ILS % (L1210 leukemia [2]; 10^5 cells, day +4) of the same compound?
A: 15.7%

Q: And the MST (L1210 leukemia [2]; 10^5 cells, day +4)?
A: 10.3 days

Q: What about the Range of death (L1210 leukemia [2]; 10^5 cells, day +4) of the same compound?
A: 10-11

Q: What about the ILS % (L1210 leukemia [2]; 10^6 cells, day +1) of the same compound?
A: 47.3%

Q: And the MST (L1210 leukemia [2]; 10^6 cells, day +1)?
A: 11.5 days

Q: And the Range of death (L1210 leukemia [2]; 10^6 cells, day +1)?
A: 9-15

Q: And the ILS % (L1210 leukemia [2]; 10^6 cells, day +4)?
A: 34.3%

Q: What about the MST (L1210 leukemia [2]; 10^6 cells, day +4) of the same compound?
A: 9 days

Q: What about the Range of death (L1210 leukemia [2]; 10^6 cells, day +4) of the same compound?
A: 8-13

Q: And the “increased life span (ILS %), early vs late administration” value (L1210 leukemia [2]; product given earlier after the cells inoculum)?
A: higher when the product was given earlier

Q: With `CCN(CC)CCCNc1nccc2c(C)c3[nH]c4ccncc4c3cc12` [Example 7, 1-(γ-diethylaminopropyl)amino-5-methyl-dipyrido-[4,3-b][3,4-f] indole] as the compound, how does the “activity against L1210 leukemia (in words)” value (L1210 leukemia [3]; Table XIII summary) read?
A: the compound the most active on the mice

Q: What about the ILS % (L1210 leukemia [3]; day +1) of the same compound?
A: 69.2%

Q: What about the “Survivors up to 60 days” value (L1210 leukemia [3]; day +1) of the same compound?
A: 1

Q: What about the MST (L1210 leukemia [3]; day +1, control MST 8.8) of the same compound?
A: 14.9

Q: What about the Range of death (L1210 leukemia [3]; day +1, control MST 8.8) of the same compound?
A: 12-18

Q: What about the ILS % (L1210 leukemia [3]; day +4) of the same compound?
A: 65.6%

Q: What about the “Survivors up to 60 days” value (L1210 leukemia [3]; day +4) of the same compound?
A: 0

Q: And the MST (L1210 leukemia [3]; day +4, control MST 11.2)?
A: 18.5

Q: What about the Range of death (L1210 leukemia [3]; day +4, control MST 11.2) of the same compound?
A: 14-32

Q: What about the “time of deaths after drug administration” value (mice; IP) of the same compound?
A: 4 to 8 days

Q: And the “minimal quantity resulting in 100% deaths” value (mice; IP, mortality up to the 30th day)?
A: 50 mg/kg

Q: And the “toxicity (toxic dose)” value (mice; Test 17 text)?
A: 50 mg/kg

Q: And the ILS (L1210 leukemia [4]; 5 mg/kg)?
A: 87%

Q: What about the ILS (L1210 leukemia [4]; 10 mg) of the same compound?
A: 52%

Q: And the “inoculated mice surviving up to 60 days” value (L1210 leukemia [4]; 20 mg per kg)?
A: 20%

Q: And the ILS (L1210 leukemia [4]; 20 mg/kg)?
A: 75%

Q: And the “inoculated mice surviving up to 60 days” value (L1210 leukemia [4]; 100mg (so in the source))?
A: 10%

Q: And the ILS % (leukemic cells; BCNU 2 mg/kg)?
A: 65.2%

Q: And the Range of death (leukemic cells; BCNU 2 mg/kg immediately after endoxan)?
A: 14-32

Q: What about the MST (leukemic cells; BCNU 2 mg/kg, control 11.2) of the same compound?
A: 18.5

Q: What about the toxic dose (new-born mice) of the same compound?
A: higher than 2.5 mg/kg of mouse

Q: And the ILS % (L1210 cells; day +2)?
A: 56.4%

Q: What about the MST (L1210 cells; day +2) of the same compound?
A: 15.8

Q: And the Range of death (L1210 cells; day +2, 10^4 cells)?
A: 15-17

Q: And the MST (L1210 cells; day +3)?
A: 14.4

Q: And the Range of death (L1210 cells; day +3)?
A: 12-17

Q: What about the ILS % (L1210 cells; day +3, listed as BD 40) of the same compound?
A: 43.0%

Q: And the ILS % (L1210 cells; day +3, listed as Compound 21)?
A: 43%

Q: And the ILS % (L1210 cells; day +4)?
A: 22.8%

Q: What about the MST (L1210 cells; day +4) of the same compound?
A: 12.4

Q: What about the Range of death (L1210 cells; day +4) of the same compound?
A: 10-14

Q: And the ILS % (L1210 cells; day +5)?
A: 17.8%

Q: And the MST (L1210 cells; day +5)?
A: 11.9

Q: And the Range of death (L1210 cells; day +5)?
A: 10-13

Q: What about the ILS % (L1210 cells; day +6) of the same compound?
A: 20.8%

Q: And the MST (L1210 cells; day +6)?
A: 12.2

Q: And the Range of death (L1210 cells; day +6)?
A: 10-14

Q: And the MST (L1210 cells; day +7)?
A: 10.3

Q: What about the Range of death (L1210 cells; day +7) of the same compound?
A: 10-13

Q: And the ILS % (L1210 cells; day +7, listed as BD 40)?
A: 2.0%

Q: And the ILS % (L1210 cells; day +7, listed as Compound 21)?
A: 2%

Q: And the “Range of death (first death)” value (L 1210 leukemia; [5])?
A: 6 days

Q: What about the “mice alive on 30th day” value (L 1210 leukemia; [5]) of the same compound?
A: 1

Q: What about the ILS % (L 1210 leukemia; [6]) of the same compound?
A: 25.45%

Q: And the “MTS (mean survival time)” value (L 1210 leukemia; [6])?
A: 13.8

Q: What about the Range of death (L 1210 leukemia; Table V, 10^4 cells, J+3, mg/mouse: example 7 0.2, Thiotepa 0.1, Mitomycine 0.016, BCNU 0.1, Methotrexate 0.250, Endoxan 4) of the same compound?
A: 11 to 17 days

Q: And the ILS % (L 1210 leukemia; [7])?
A: 39.07%

Q: What about the “MTS (mean survival time)” value (L 1210 leukemia; [7]) of the same compound?
A: 12.6

Q: What about the Range of death (L 1210 leukemia; [7]) of the same compound?
A: 9-16

Q: And the ILS % (L 1210 leukemia; [8])?
A: 35.43%

Q: What about the “MTS (mean survival time)” value (L 1210 leukemia; [8]) of the same compound?
A: 12.27

Q: What about the Range of death (L 1210 leukemia; [8]) of the same compound?
A: 10-15

Q: And the ILS % (L 1210 leukemia; [9])?
A: 36.35%

Q: What about the “MTS (mean survival time)” value (L 1210 leukemia; [9]) of the same compound?
A: 14.18

Q: What about the Range of death (L 1210 leukemia; [9]) of the same compound?
A: 13-16
